In patent US20060216336A1, “Transdermal therapeutic system for Parkinson's Disease” (priority 2002, published 2006):

Experiment: Multiple dose trial with rotating patch application sites in early-stage Parkinson's disease: rotigotine pharmacokinetics (Example 4)
Details: human, in vivo; for concentration at […]: 23.5 H
Text: Each day, a fresh patch was placed on a new skin site (abdomen, flank, upper arm, shoulder, thigh, hip) in a rotating order. The silicone transdermal patches were made in accordance with the teachings of U.S. Patent Application Publication No. US 2003/0026830 at paragraphs 38-42, U.S. Patent Application Publication No. US 2003/0027793 at paragraphs 37-41 and U.S. Pat. No. 6,884,434, columns 5-6, Example 2 and comprised the following layers and components:
The trial consisted of an Eligibility Assessment (EA), a 24-day Titration Phase (4.5 to 18.0 mg/day doses; incremental increases of 4.5mg/day every 6 days), a 6-day Maintenance Phase (18.0 mg/day dose), a 6-day De-escalation Phase (13.5/9.0/4.5mg/day decreasing dose every 2 days), and a Safety Follow-Up visit 2 days following the last dose.
The silicone transdermal patches were made in accordance with the teachings of U.S. Patent Application Publication No. US 2003/0026830 at paragraphs 3842 and U.S. Patent Application Publication No. US 2003/0027793 at paragraphs 3741 comprised the following layers and components as disclosed above
The 18.0 mg/day dose used 2×20 cm^2 patches. Initial doses were 4.5 mg/day with weekly increases of 4.5 mg/day to a maximum target dose of 18.0 mg/day.

[1] = rotigotine plasma concentration Geo. Mean
[2] = rotigotine plasma concentration Max
[3] = rotigotine plasma concentration Mean
[4] = rotigotine plasma concentration Median
[5] = rotigotine plasma concentrations, Geo. Mean
[6] = rotigotine plasma concentrations, Mean
[7] = rotigotine plasma concentrations, Median

**Q.** What does the source list for `CCCN(CCc1cccs1)[C@H]1CCc2c(O)cccc2C1` [rotigotine, (6S)-6{propyl[2-(2-thienyl)ethyl]amino}-5,6,7,8-tetrahydro-1-naphthalenol]?
**A.** concentration at […] (18 mg/day, rotigotine plasma concentration Min, Thigh, Days 27 & 30 Combined): 0.152 ng/mL; concentration at […] (18 mg/day, rotigotine plasma concentration Min, Upper Arm, Day 27): 0.129 ng/mL; concentration at […] (18 mg/day, rotigotine plasma concentration Min, Upper Arm, Day 30): 0.347 ng/mL; concentration at […] (18 mg/day, rotigotine plasma concentration Min, Upper Arm, Days 27 & 30 Combined): 0.129 ng/mL; concentration at […] (18 mg/day, rotigotine plasma concentrations, Geo. Mean, Application Site = Abdomen, Day 27): 0.806 ng/mL; concentration at […] (18 mg/day, rotigotine plasma concentrations, Geo. Mean, Application Site = Abdomen, Day 30): 0.545 ng/mL; concentration at […] (18 mg/day, rotigotine plasma concentrations, Geo. Mean, Application Site = Abdomen, Days 27 & 30 Combined): 0.676 ng/mL; concentration at 7 h (18 mg/day, rotigotine plasma concentrations, Geo. Mean, Application Site = Flank, Days 27 & 30 Combined, 7 H): 0.681 ng/mL; concentration at […] (18 mg/day, rotigotine plasma concentrations, Geo. Mean, Application Site = Flank, Days 27 & 30 Combined): 0.81 ng/mL; concentration at […] (18 mg/day, rotigotine plasma concentrations, Mean, Application Site = Abdomen, Day 27): 0.929 ng/mL; concentration at […] (18 mg/day, rotigotine plasma concentrations, Mean, Application Site = Abdomen, Day 30): 0.613 ng/mL; concentration at […] (18 mg/day, rotigotine plasma concentrations, Mean, Application Site = Abdomen, Days 27 & 30 Combined): 0.787 ng/mL; concentration at […] (18 mg/day, rotigotine plasma concentrations, Mean, Application Site = Flank, Days 27 & 30 Combined): 1.1 ng/mL; concentration at […] (18 mg/day, rotigotine plasma concentrations, Median, Application Site = Abdomen, Day 30): 0.415 ng/mL; concentration at […] (18 mg/day, rotigotine plasma concentrations, Median, Application Site = Abdomen, Days 27 & 30 Combined): 0.677 ng/mL; concentration at […] (18 mg/day, rotigotine plasma concentrations, Median, Application Site = Flank, Days 27 & 30 Combined): 0.714 ng/mL; AUC(0-t) (AUC 0-t, ss): 23.8 ng·h/mL; concentration at 27 day (Average Concentration): 0.882 ng/mL; concentration at 30 day (Average Concentration): 0.975 ng/mL; concentration at 5 h [1]: 0.971 ng/mL; concentration at 6 h [1]: 0.837 ng/mL; concentration at 7 h [1]: 0.993 ng/mL; concentration at 14 h [1]: 1.15 ng/mL; concentration at 16 h [1]: 1.15 ng/mL; concentration at 18 h [1]: 1.16 ng/mL; concentration at 20 h [1]: 1.14 ng/mL; concentration at 22 h [1]: 0.815 ng/mL; concentration at 10 h [2]: 1.98 ng/mL; concentration at 16 h [2]: 2.53 ng/mL; concentration at 18 h [2]: 3.25 ng/mL; concentration at 22 h [2]: 1.77 ng/mL; concentration at 6 h [3]: 0.911 ng/mL; concentration at 7 h [3]: 1.08 ng/mL; concentration at 10 h [3]: 1.17 ng/mL; concentration at 14 h [3]: 1.26 ng/mL; concentration at 16 h [3]: 1.28 ng/mL; concentration at 18 h [3]: 1.32 ng/mL; concentration at 20 h [3]: 1.4 ng/mL; concentration at 22 h [3]: 0.904 ng/mL; concentration at 5 h [4]: 0.956 ng/mL; concentration at 14 h [4]: 1.21 ng/mL; concentration at 16 h [4]: 1.06 ng/mL; concentration at 18 h [4]: 1.17 ng/mL; concentration at 20 h [4]: 1.04 ng/mL; concentration at 22 h [4]: 0.734 ng/mL; concentration at 10 h [5]: 0.816 ng/mL; concentration at 12 h [5]: 0.848 ng/mL; concentration at 14 h [5]: 0.84 ng/mL; concentration at 16 h [5]: 1 ng/mL; concentration at 18 h [5]: 1.01 ng/mL; concentration at 20 h [5]: 1.02 ng/mL; concentration at 22 h [5]: 0.91 ng/mL; concentration at 10 h [6]: 0.909 ng/mL; concentration at 12 h [6]: 0.911 ng/mL; concentration at 14 h [6]: 0.931 ng/mL; concentration at 16 h [6]: 1.07 ng/mL; concentration at 18 h [6]: 1.06 ng/mL; concentration at 20 h [6]: 1.08 ng/mL; concentration at 22 h [6]: 1.01 ng/mL; concentration at 10 h [7]: 0.766 ng/mL; concentration at 12 h [7]: 0.763 ng/mL; concentration at 14 h [7]: 0.816 ng/mL; concentration at 16 h [7]: 0.904 ng/mL; concentration at 18 h [7]: 1.08 ng/mL; concentration at 20 h [7]: 0.962 ng/mL; concentration at 22 h [7]: 0.804 ng/mL
